For test [1], the target named is ADP-ribosylation factor GTPase-activating protein 1 (Rattus norvegicus, UniProt Q62848). The test can be described thus: Fluorescence polarization-based biochemical high throughput dose response screening assay to identify inhibitors of ADP-ribosylation factor GTPase activating protein 1 (ARFGAP1). It is filed as functional. (Polarisation of emitted light reports the rotation of a fluorescent probe.)

For another test, the target named is Protein Wnt-3a (Mus musculus, UniProt P27467). Nature of the test: SAR analysis of small molecule antagonists of Gli-SUFU in a Wnt3a luminescent reporter assay. It is filed as functional. For orientation: In a reporter assay the amount or activity of a reporter protein is the signal.
Protein Wnt-3a, sequence (P27467 whole entry): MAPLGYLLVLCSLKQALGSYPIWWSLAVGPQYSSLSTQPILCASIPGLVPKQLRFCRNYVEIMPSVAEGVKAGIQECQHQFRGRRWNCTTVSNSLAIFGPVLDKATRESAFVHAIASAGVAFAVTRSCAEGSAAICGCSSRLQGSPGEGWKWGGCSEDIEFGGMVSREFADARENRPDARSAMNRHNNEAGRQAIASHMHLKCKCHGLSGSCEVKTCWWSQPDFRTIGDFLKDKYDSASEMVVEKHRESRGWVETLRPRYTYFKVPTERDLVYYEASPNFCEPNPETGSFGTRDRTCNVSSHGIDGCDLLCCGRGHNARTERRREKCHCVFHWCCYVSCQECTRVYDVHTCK
The test system of test [2] is Streptococcus sp. 'group A'. Nature of the test: Streptococcus pyogenes SK(-)GAS viability under kanamycin – luminescence, BacTiterGlo, confirmation, counter-screen for streptokinase expression inhibitor project, dose response (AID 1900). It is filed as functional, organism-based.
The subject of another test is Streptococcus. The test can be described thus: GAS UMAA2166 growth inhibition – luminescence, BacTiterGlo, counter-screen for streptokinase expression inhibitor project, dose response (AID 1915).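 Further: potency for reduction of bacterial viability or growth.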 In kind it is functional, organism-based. (In general: A counterscreen serves to expose hits that act by an unwanted route or on another target.)
A short description of test [3]: HGIII-sPLA2 enzyme inhibition potency – biochemical, QFRET, IC50, dose response (AID 743457).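 Further: green fluorescence rise as the enzyme cleaves BODIPY PC-A2 in liposomes.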
A further test addresses NS3 (Hepatitis C virus, UniProt A3EZJ3). The test can be described thus: NS3h DNA-binding inhibition IC50 – biochemical, fluorescence polarization, ChemBridge library, dose response (AID 743264).
For test [4], the system named is BJ. The test can be described thus: BJ-TERT-LT-ST fibroblast viability loss – cell-based, RAS-independent, luminescence, dose response (AID 1935).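 Further: BJ fibroblasts immortalized with TERT plus LT and ST oncogenes.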 In kind it is functional. The settings on record: Homo sapiens.
Test [5] can be described thus: cells. In kind it is functional, cell-based.
Test [6] addresses DNA repair and recombination protein RAD54-like (Homo sapiens, UniProt Q92698). The test can be described thus: RAD54 Holliday junction migration blockers – biochemical, fluorescence, cherry-picked samples, dose series, confirmation (AID 651657). It is filed as functional.
The test system of test [7] is BJ. The test can be described thus: cells. The settings on record: Homo sapiens. In kind it is functional, cell-based.
A short description of test [8]: Counterscreen for activators of the function of SWI/SNF related, matrix associated, actin dependent regulator of chromatin, subfamily a, member 2 (SMARCA2, BRM): Luminescence-based cell-based high throughput dose response assay to identify non-selective compounds using the VP16 reporter assay. In kind it is functional.
Another test deals with INS1. Nature of the test: INS-1E survival protection against cytokine death – cell-based, luminescence, retest, dose response (AID 449756).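 Further: cell death triggered by IL-1 beta plus TNF-alpha plus IFN-gamma mixture; protective hits raise ATP signal compared with cytokine alone wells.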 It is filed as functional. The note with it: Rattus norvegicus.
Test [9] is described as follows: cells. It is filed as functional, cell-based. This is another data set of the same source.
Test [10] in a line: DRD fibroblast viability loss – cell-based, non-viral oncogenic, luminescence, dose response (AID 1934). In kind it is functional. The note with it: Homo sapiens.
Test [11] has as its target Aryl hydrocarbon receptor (Homo sapiens, UniProt P35869). Nature of the test: Luminescence-based cell-based high throughput dose response assay for activators of the Aryl Hydrocarbon Receptor (AHR). [Related pubchem assays: 2796 (Primary screen (AHR activators in singlicate)), 2845 (Confirmation screen (AHR activators in triplicate)), 434939 (Counterscreen (PXR activators in triplicate)), 2804 (Summary (AHR activators))]. It is filed as ADME.

Test [12] concerns the target SWI/SNF-related matrix-associated actin-dependent regulator of chromatin subfamily A member 2 (Homo sapiens, UniProt P51531). The test can be described thus: Luminescence-based cell-based high throughput dose response assay to identify activators of the function of SWI/SNF related, matrix associated, actin dependent regulator of chromatin, subfamily a, member 2 (SMARCA2, BRM). It is filed as functional.

In test [13] the test system is BJ. The test can be described thus: BJ-TERT fibroblast viability loss – cell-based, RAS-independent, luminescence, dose response (AID 1933). It is filed as functional. The note with it: Homo sapiens.
In test [14] the target is T1, Sentrin-specific protease 1 (Homo sapiens, UniProt Q9P0U3). The test can be described thus: Dose response confirmation of small molecule inhibitors of the catalytic domain of the SUMO protease, SENP1 in a FRET assay. It is filed as functional. The note with it: read-out: IC50_Mean.
T1 sequence (Q9P0U3 whole entry, the tested form may be a part): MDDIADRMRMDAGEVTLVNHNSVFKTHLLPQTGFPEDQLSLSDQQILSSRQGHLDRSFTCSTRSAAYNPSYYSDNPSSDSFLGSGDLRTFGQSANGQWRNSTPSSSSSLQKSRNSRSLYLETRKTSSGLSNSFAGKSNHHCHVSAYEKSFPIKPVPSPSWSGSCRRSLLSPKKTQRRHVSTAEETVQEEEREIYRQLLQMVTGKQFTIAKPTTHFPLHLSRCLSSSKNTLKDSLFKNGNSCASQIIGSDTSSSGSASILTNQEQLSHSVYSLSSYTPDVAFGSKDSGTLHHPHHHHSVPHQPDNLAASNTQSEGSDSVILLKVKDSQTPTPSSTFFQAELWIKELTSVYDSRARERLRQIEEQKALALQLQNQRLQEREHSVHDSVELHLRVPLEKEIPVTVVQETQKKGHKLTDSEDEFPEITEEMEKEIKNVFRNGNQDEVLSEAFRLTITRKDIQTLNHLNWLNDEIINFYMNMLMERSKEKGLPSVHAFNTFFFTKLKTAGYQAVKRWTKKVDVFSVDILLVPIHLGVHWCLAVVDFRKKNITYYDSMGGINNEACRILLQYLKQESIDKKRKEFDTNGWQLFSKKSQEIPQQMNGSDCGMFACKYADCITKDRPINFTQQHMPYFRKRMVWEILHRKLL
The next test has as its target Melanocortin receptor 4 (Homo sapiens, UniProt P32245). It is filed as functional, cell-based.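 Further: Cell-based assay with luminescence read-out, confirmatory dose-response testing for agonist activity of biased ligands at MC4R; human U2OS cells with tagged receptor and beta-arrestin; potency of agonists that increase receptor coupling to beta-arrestin.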
Test [15] concerns the target T1, Sentrin-specific protease 1. Nature of the test: SENP1 catalytic domain blockers, concentration series – biochemical, kinetic FRET, dose response (AID 651697). It is filed as functional. The note with it: read-out: IC50_Mean.
Test [16] concerns the target T2, ATP-dependent translocase ABCB1 (Homo sapiens, UniProt P08183). Nature of the test: inhibition of BCRP-mediated JC-1 efflux – Ig-MXP3 cells, flow cytometry, set 2, dose response (AID 504566).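 Further: flow cytometry median green fluorescence of retained JC-1 dye; potency of efflux pump inhibition measured as rising substrate retention.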 It is filed as functional. The note with it: read-out: EC50_MICROM_.
The target in test [17] is T2, ATP-dependent translocase ABCB1. Nature of the test: P-gp JC-1 efflux blockade concentration-response – Jurkat-DNR cells, flow cytometry, set 2, dose response (AID 504569).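 Further: potency of pump inhibitors that raise cellular JC-1 green fluorescence up to the nicardipine level.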 It is filed as functional. The settings on record: read-out: EC50_MICROM_.
A short description of test [18]: viability of uninfected HEp-2 cells – cell-based, HTS, cytotoxicity control for RSV inhibitor project, dose response (AID 2410). In kind it is functional. The settings on record: human respiratory syncytial virus.
Test [19] deals with T3, Beta-2 adrenergic receptor (Homo sapiens, UniProt P07550). The test can be described thus: Dose response for HTS for Beta-2AR agonists via FAP method from Powderset1. It is filed as functional.
T3 sequence (P07550 whole entry): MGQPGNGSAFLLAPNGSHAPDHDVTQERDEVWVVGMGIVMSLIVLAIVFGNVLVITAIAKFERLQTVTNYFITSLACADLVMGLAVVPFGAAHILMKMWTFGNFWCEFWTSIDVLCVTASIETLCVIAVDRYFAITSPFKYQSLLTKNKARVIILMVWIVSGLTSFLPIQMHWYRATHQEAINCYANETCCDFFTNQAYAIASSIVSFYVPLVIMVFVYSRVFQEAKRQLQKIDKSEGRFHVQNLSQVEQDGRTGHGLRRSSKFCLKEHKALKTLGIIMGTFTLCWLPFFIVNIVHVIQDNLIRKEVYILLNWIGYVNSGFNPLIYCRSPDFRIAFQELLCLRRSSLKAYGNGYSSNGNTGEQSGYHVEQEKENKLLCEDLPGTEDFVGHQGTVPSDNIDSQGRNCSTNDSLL
In test [20] the target is T3, Beta-2 adrenergic receptor. The test can be described thus: ADRB2 activation measured by internalization – cell-based, FAP fluorogen, flow cytometry, cherry pick 1, dose response (AID 588763). In kind it is functional.
A short description of test [21]: Counterscreen for antagonists of the human trace amine associated receptor 1 (hTAAR1): Fluorescence-based cell-based high throughput dose response assay to identify nonselective Ga16 antagonists. In kind it is functional.
The nature of test [22]: Counterscreen for […] of the human trace amine associated receptor 1 (TAAR1): Fluorescence-based cell-based high throughput dose response assay to identify nonselective Ga16 agonists. In kind it is functional.

Data on 9 compounds can be found in ChEMBL document CHEMBL1201862, “PubChem BioAssay data set” (2004).

SMILES strings stand for the structures. Several values for one entry are separate records, joined by “and”; a condition that tells them apart may be missing. Equal entries are not always repeated. Activity calls are given as the source filed them.

T2 sequence (P08183 whole entry): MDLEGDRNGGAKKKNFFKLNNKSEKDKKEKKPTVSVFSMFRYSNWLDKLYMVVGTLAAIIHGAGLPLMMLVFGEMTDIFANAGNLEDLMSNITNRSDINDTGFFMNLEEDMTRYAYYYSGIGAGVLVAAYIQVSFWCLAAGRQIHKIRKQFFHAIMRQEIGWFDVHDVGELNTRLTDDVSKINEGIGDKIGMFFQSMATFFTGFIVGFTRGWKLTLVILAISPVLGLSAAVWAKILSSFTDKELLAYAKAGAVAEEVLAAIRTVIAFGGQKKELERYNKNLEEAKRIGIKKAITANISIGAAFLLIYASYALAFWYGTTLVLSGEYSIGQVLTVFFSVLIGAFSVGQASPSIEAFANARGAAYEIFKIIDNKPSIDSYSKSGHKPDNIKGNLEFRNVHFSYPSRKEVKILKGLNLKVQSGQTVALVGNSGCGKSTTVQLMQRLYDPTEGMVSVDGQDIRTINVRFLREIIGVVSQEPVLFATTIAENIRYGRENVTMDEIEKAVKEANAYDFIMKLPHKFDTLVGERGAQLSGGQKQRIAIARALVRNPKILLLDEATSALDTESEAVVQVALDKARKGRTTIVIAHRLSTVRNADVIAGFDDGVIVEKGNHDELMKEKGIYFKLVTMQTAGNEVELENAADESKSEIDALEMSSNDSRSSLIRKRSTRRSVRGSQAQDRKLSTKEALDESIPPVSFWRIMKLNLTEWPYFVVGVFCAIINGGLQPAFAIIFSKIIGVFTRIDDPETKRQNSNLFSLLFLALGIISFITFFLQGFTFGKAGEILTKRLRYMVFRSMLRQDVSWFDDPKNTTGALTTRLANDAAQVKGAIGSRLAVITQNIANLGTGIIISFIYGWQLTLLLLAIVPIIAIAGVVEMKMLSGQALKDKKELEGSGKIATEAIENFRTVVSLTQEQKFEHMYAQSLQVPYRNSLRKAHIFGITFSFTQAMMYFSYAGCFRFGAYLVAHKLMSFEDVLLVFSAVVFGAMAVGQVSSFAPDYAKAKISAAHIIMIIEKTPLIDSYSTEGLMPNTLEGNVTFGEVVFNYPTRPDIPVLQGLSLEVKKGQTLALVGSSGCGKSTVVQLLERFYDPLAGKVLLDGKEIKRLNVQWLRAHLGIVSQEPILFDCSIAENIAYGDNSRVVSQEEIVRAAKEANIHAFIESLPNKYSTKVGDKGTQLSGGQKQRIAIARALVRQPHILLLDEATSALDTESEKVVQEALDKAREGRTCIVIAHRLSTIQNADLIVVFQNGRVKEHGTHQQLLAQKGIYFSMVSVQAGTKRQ
Melanocortin receptor 4, sequence (P32245 whole entry, the tested form may be a part): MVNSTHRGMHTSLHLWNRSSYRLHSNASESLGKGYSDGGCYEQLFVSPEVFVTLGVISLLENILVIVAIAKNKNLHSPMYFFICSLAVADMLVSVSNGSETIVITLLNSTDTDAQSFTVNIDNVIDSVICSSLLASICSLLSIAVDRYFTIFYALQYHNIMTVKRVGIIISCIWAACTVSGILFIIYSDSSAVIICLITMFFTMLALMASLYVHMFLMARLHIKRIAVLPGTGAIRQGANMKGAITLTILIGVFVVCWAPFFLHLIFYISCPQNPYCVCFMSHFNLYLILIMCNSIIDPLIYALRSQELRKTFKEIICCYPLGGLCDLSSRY
SWI/SNF-related matrix-associated actin-dependent regulator of chromatin subfamily A member 2, sequence (P51531 whole entry): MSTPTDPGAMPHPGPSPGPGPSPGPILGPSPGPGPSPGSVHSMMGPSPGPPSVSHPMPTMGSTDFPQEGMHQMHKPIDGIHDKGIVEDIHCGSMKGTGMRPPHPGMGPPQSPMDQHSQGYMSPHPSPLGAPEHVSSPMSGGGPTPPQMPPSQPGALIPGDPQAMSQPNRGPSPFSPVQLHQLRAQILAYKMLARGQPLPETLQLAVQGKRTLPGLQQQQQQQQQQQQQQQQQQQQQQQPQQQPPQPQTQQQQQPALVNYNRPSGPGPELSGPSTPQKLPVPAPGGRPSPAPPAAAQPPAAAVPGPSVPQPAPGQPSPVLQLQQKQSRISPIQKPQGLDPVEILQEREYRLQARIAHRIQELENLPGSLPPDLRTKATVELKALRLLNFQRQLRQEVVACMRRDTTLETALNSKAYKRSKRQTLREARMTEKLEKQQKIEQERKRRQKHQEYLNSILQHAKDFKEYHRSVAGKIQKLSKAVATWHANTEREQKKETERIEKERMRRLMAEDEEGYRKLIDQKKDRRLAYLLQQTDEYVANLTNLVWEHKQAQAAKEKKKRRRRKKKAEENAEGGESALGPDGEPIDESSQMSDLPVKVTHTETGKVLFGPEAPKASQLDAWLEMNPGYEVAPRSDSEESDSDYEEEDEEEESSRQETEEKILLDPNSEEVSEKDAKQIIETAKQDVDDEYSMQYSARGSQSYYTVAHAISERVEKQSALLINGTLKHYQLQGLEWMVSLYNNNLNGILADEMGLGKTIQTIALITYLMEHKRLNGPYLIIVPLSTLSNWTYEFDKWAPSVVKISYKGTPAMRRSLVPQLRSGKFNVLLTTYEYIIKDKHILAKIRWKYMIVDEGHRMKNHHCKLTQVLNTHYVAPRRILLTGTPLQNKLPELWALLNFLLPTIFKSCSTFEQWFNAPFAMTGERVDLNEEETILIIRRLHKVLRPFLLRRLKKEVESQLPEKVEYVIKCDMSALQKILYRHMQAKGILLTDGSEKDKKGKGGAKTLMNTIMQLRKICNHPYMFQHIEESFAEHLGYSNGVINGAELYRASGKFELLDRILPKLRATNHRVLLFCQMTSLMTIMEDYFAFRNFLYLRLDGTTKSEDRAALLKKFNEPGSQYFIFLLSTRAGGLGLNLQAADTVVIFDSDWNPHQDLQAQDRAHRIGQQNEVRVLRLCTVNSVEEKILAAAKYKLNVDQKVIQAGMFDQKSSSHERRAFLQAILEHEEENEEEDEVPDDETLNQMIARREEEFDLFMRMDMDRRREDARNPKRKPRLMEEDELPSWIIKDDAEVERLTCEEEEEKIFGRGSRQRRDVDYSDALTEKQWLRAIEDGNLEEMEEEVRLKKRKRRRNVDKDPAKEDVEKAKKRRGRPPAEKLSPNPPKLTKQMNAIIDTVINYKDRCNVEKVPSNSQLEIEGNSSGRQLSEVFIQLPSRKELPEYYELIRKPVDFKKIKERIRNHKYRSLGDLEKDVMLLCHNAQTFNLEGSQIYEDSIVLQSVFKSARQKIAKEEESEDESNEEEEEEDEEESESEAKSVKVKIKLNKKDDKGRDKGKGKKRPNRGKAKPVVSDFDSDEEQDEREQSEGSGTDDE
ADP-ribosylation factor GTPase-activating protein 1, sequence (Q62848 whole entry): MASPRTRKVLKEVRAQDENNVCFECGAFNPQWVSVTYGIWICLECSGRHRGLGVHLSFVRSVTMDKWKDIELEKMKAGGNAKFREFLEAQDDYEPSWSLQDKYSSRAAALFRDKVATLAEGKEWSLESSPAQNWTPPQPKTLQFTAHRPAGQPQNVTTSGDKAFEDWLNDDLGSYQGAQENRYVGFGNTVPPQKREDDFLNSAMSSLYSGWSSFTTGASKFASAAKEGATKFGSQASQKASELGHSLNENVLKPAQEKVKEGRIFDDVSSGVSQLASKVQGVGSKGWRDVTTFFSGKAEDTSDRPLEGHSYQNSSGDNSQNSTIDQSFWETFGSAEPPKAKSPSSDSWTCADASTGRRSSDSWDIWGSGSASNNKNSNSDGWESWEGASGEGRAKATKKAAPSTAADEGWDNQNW

Turning to `C=CCOc1ccc(/C=C/C(=O)Nc2ccc(C(=O)NC)cc2)cc1`, in test [1], the IC50 is 52.2 µM (inactive).
On to `CN(C)c1cc(NC(=O)c2cccc(F)c2)ncn1`, for which, on Protein Wnt-3a, the IC50 is > 21.8 µM (inactive).
Regarding `O=C(NNC(=S)NC(=O)c1cccs1)c1ccc(NC(=O)c2ccccc2)cc1`, the EC50 in test [2] was 0.479 µM (active); with Streptococcus, 6.3 µM (active). Further, the IC50 in [3] was 51.9 µM (inactive).
Take `Cc1ccc(C(=O)O)cc1-n1c(C)ccc1C`: the IC50 at NS3 was 7.6 µM (inactive).
Broadly, the AC50 is the concentration giving half of the maximal activity seen. Turning to `Nc1cc2c3c(cccc3c1)C(=O)N(CCN1CCCC1)C2=O`, the EC50 in the test with BJ [4] was > 150 µM (inconclusive); in “cells [5]”, > 350 µM (not active); in the test on BJ [7] it was 20.6 µM (active); in test [8] it was > 91.2 µM (inactive); in “cells [9]” it was > 350 µM (not active); in test [10], 19.5 µM (active). Also, the values for the EC50 (in test [11]; in [12]; in the test on BJ [13]) were 0.286 µM (active), > 10.1 µM (inactive) and 13.2 µM (active), respectively. In addition, the AC50 is 5.82 µM (active) in test [6] and 3.43 µM (active) in the test with INS1.
`CCOc1ccc(Cn2c3ccc(OC)cc3c3nc4ccccc4nc32)cc1OC`: the IC50 was 6.92 µM (active) in test [14] and 12.8 µM (active) in test [15]. Also, the EC50 on Melanocortin receptor 4 was > 89.2 µM (inactive).
By CC50 is commonly meant the concentration that lowers cell viability or growth by half. As for `Cc1cc(N2CCN(C(=O)c3ccco3)CC2)n2nc(-c3cccc(Cl)c3)cc2n1`, the EC50 is 2.24 µM (active) in [16], > 89.2 µM (inactive) on Melanocortin receptor 4 and 5.05 µM (inactive) in [17]. The CC50 in test [18] was 34.7 µM (active).
`CC(=O)Nc1ccc(S(=O)(=O)N2CCCCC2c2cccnc2)cc1` (stereo not drawn): the EC50 was 0.0233 µM (active) in [19]; 262 nM (active) and 107 nM (active) in [20].
`CCCOC(=O)c1c(-c2ccc(OC)cc2)oc2ccc(-c3ccc(OC)nc3)cc12`: the IC50 in test [21] is > 29.9 µM (inactive). The EC50 in test [22] is > 29.9 µM (inactive).
